Read-outs that look alike come from different tables or passages of the source.
Tests used:
[1] = tested on: m6A levels in poly(A) purified mRNA of PC-3 cells; assay: m6A level by 2D thin-layer chromatography; format: cell-based, human; conditions: 24 h time frame
Description: 100 ng of the poly(A) purified RNA was used as the input. Processed samples were analyzed on glass-backed PEI-cellulose plates (MerckMillipore) as described previously. Plates were exposed to a storage phosphor screen below saturation and processed on a Typhoon NIR laser scanner (Cytiva). Quantification of individual nucleotides was done with ImageJ. The relative amount of m6A was calculated as a percent of the total A (sum of both A and m6A spot intensity).

[2] = molecular target: T1, recombinant YTH domain of the YTHDF1 protein (Homo sapiens, UniProt Q9BYJ9); assay: ESI-MS of the protein after incubation with the compound; format: binding
T1 construct: The human YTHDF1 YTH domain (amino acids 365–554, PDB: 4RCJ); host or cells: E. coli BL21(DE3)
T1 sequence (Q9BYJ9 365-554): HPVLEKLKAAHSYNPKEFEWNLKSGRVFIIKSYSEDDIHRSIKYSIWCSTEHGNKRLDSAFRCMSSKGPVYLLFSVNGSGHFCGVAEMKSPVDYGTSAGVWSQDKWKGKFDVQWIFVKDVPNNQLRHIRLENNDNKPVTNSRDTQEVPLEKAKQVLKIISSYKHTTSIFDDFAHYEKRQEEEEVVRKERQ

human YTHDF2 YTH domain = molecular target: T2, human YTHDF2 YTH domain (Homo sapiens, UniProt Q9Y5A9); assay: Tryptophan fluorescence quenching assay; format: binding
T2 construct: the human YTHDF2 YTH domain (amino acids 383–553, PDB: 4WQN); made in house; host or cells: E. coli BL21(DE3)
T2 sequence (Q9Y5A9 383-553): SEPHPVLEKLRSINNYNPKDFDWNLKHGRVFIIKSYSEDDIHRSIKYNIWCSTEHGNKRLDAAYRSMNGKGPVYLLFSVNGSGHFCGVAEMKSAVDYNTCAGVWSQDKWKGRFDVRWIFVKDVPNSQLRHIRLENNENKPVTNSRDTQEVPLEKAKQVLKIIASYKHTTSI
Description: (§1) Fluorescence was measured using a Tecan Infinite 200 Microplate reader (Tecan Group Ltd.), setting the […] wavelength at 288 nm and collecting the emission data at 330 nm.

[3] = molecular target: T3, YTH domain of the YTHDC1 protein (Homo sapiens, UniProt Q96MU7); assay: Tryptophan fluorescence quenching assay; format: binding
T3 construct: made in house
Description: as §1

YTHDF1 YTH domain [4] = molecular target: T4, YTHDF1 YTH domain (Homo sapiens, UniProt Q9BYJ9); assay: Tryptophan fluorescence quenching assay; format: binding
T4 construct: The human YTHDF1 YTH domain (amino acids 365–554, PDB: 4RCJ); host or cells: E. coli BL21(DE3)
T4 sequence (Q9BYJ9 365-554): T1 sequence (Q9BYJ9 365-554)
Description: as §1

YTHDF1 YTH domain [5] = molecular target: T4, YTHDF1 YTH domain; assay: NMR titration (2D 1H-15N HSQC) in reducing conditions; format: binding; conditions: 10 mM β-mercaptoethanol, 100 μM protein
Description: To further investigate the ligand–protein interaction in reversible conditions, the resonances of the YTHDF1 YTH domain were assigned. The protein sample was titrated with ebselen, in the presence of β-mercaptoethanol (10 mM) as a reducing agent, to prevent the covalent bond formation. The titration was monitored by NMR to map at atomic resolution the ligand-binding site on the protein surface. Increasing amounts of the ligand (12.5, 25, 50, 100, and 200 μM) were added to the protein solution during the NMR titration, and 2D ^1H–^15N heteronuclear single quantum coherence (HSQC) spectra were acquired.
The interaction of the protein with ebselen was investigated by solution NMR. 2D ^1H–^15N HSQC spectra were acquired on a spectrometer operating at 950 MHz and 298 K, on the free protein (100 μM in 20 mM Tris buffer, pH 7.5, 150 mM NaCl, 250 mM LiCl, 10 mM 2-mercaptoethanol, 0.5 mM EDTA, 0.1% NaN3, and protease inhibitors) and after the addition of increasing aliquots of a solution of the ligand in DMSO-d6 to reach the final concentrations of 12.5, 25, 50, 100, and 200 μM.

[6] = tested on: YTHDF1-3, ALKBH5 and METTL3 in PC-3 cells; assay: Western blot of the epitranscriptome apparatus; format: cell-based, human; conditions: PC-3 cells, 24, 48 and 72 h, 10, 25, 50 μM; listed as ebselen
Description: Supplementary Figure 4. Protein level of the epitranscriptome apparatus and m6A level in PC-3 cells. (A) Representative western blot of YTHDF1-3, ALKBH5 and METTL3 in PC-3 cells after 24, 48 and 72 hours of ebselen treatment at three doses, 10, 25, 50 µM. (B) Quantification of the relative changes of YTHDF1-3, ALKBH5 and METTL3 in PC-3 cells after 24, 48 and 72 hours of ebselen treatment at three doses, 10, 25, 50 µM. […] Three biological replicates were performed. (C) Quantitative real-time PCR of YTHDF1-3, ALKBH5 and METTL3 in PC-3 cells after 24 hours of ebselen treatment at 10 µM.
Supplementary Figure 5. Caption: 2F o-Fc map (blue) is contoured at 1s for Ebselen and Cys412 side chain. The selenium anomalous map is contoured at 3.5σ and shown in orange.
(1 picture or pasted object on this page, not shown here)

[7] = molecular target: T5, YTH domain of YTHDF1 / biotinylated RNA probe 5′-Bi-CCGAm6ACUGUC-3′ (Homo sapiens, UniProt Q9BYJ9); assay: AlphaScreen competitive assay, saturation binding; conditions: 50 nM RNA, 50 nM protein, compound 0–100 μM
T5 construct: The human YTHDF1 YTH domain (amino acids 365–554, PDB: 4RCJ); host or cells: E. coli BL21(DE3)
T5 sequence (Q9BYJ9 365-554): T1 sequence (Q9BYJ9 365-554)
Description: The Amplified Luminescent Proximity Homogeneous Assay (ALPHA Assay) was performed in white 384-well Optiplates (PerkinElmer) in a final volume of 20 μL, and it was first optimized by titrating both the protein and the biotinylated RNA probe (5′-Bi-CCGAm6ACUGUC-3′, Dharmacon) to find the appropriate right protein/RNA ratio before the saturation of the detection signal. […] Anti-His acceptor beads (PerkinElmer) (20 μg/mL final concentration) and streptavidin donor beads (20 μg/mL final concentration) were added and the reaction was incubated in the dark at room temperature for 1 h to reach equilibrium. Light signals were detected with an Enspire Multimode Plate reader (PerkinElmer). […] The IC50 of ebselen was determined from the nonlinear regression fits of the data.

PC-3 cells = assay: Cell viability assay (OZBlue); format: cell-based; conditions: Homo sapiens
Description: PC-3 cells were seeded and treated in 96 plates for 24, 48, and 72 h. Cell viability was assessed by adding to the cells 10% of the culture medium volume of the OZBlue reagent (OZ Biosciences). Cells were incubated at 37 °C for 1 h. Fluorescence was then determined (excitation 560 nm and emission 590 nm) by a Tecan microplate reader. Cell survival was calculated with respect to control (DMSO), and IC50 values were determined by fitting with GraphPad Prism software.

O=c1c2ccccc2[se]n1-c1ccccc1 [Compound 1, 2-phenyl-1,2-benzisoselenazol-3(2H)-one]
Overall m6A methylation level (in words) [1]: no significant changes | Mass shift of the YTH domain (ESI-MS) ([2]; 5 μM protein, 50 μM compound, 60 min, no DTT): 274.96 Da | Mass of the YTH domain after incubation (ESI-MS, in words) ([2]; in the presence of 1 mM DTT): matched that of the unmodified YTH domain | EC50 (human YTHDF2 YTH domain): 1.66 µM | Interaction with the YTH domain (tryptophan fluorescence, in words) ([3]; listed as Ebselen): cannot reduce tryptophan fluorescence | Interaction with the YTH domain (tryptophan fluorescence, in words) ([3]; listed as ebselen): did not interact | EC50 (YTHDF1 YTH domain [4]; 5 μM protein, read-out: EC50 (tryptophan quenching)): 1.63 µM | EC50 (YTHDF1 YTH domain [4]; Table 1, read-out: EC50 (μM) (Tryptophan quenching)): 1.5 ± 0.24 µM | Affinity constant judged from NMR titration (in words) (YTHDF1 YTH domain [5]): low micromolar range | Expression level of the proteins of the epitranscriptome apparatus (in words) [6]: No changes were observed | IC50 [7]: 3.565 ± 0.009 µM | IC50 (PC-3 cells; 24 h): 58.8 µM | IC50 (PC-3 cells; 48 h): 49.6 µM | IC50 (PC-3 cells; 72 h): 26.8 µM
